# Measured values reported in US20210369698A1 (Attillaps Holdings, priority 2019, published 2021).
# Tested on: Demodex mites
# Conditions: 10% chloroquine in water; in vitro; water control 44.8 hours
# Experimental: In vitro efficacy and mite lifetimes: Relative efficacy of various formulations are evaluated with a demodex survival time experiments. FIG. 3 tabulates demodex survival time, expressed in terms of LT50 (time at which 50% of demodex mites are killed) and/or average minutes to death for various active agents.
compound,measurement,value
"CCN(CC)CCCC(C)Nc1ccnc2cc(Cl)ccc12 (stereo not shown) [chloroquine, Chloroquine]",LT50 (time at which 50% of demodex mites are killed),31.6 h
